# What was measured:
# [1] = tested on: mouse neuroblastoma N2a cells; assay: In vitro cytotoxicity, MTT assay; details: read-out: Cytotoxicity IC50, mouse neuroblastoma N2a cells; 48 h
# [2] = biological target: T1, BuChE (Equus caballus, UniProt P81908); assay: BuChE inhibition, Ellman's method; assay type: biochemical, horse; details: read-out: IC50 ± S.D BuChE
# T1 construct: BuChE (E.C. 3.1.1.8) (BR, 20 u/mg) from horse serum; purchased Shanghai Yuanye biological technology Co. Ltd (Shanghai, China); host or cells: horse serum (tissue-derived)
# Source text: There is increasing recognition that BuChE may play an important role in cholinergic transmission[15],[16]. While the level of AChE decreases dramatically in the advanced stage of AD, BuChE increases in brain regions involved in cognitive functions[17],[18]. At this point, BuChE is able to compensate for AChE loss by hydrolyzing ACh. These observations lead one to believe that inhibition of both AChE and BuChE may contribute to improvement of current symptomatic treatments of AD. Therefore, the compounds in Table 2 were also evaluated for BuChE inhibition activity by means of Ellman’s method. […] AChE (E.C. 3.1.1.7) (BR, 200 u/mg) from fly’s head and BuChE (E.C. 3.1.1.8) (BR, 20 u/mg) from horse serum were purchased from Shanghai Yuanye biological technology Co. Ltd (Shanghai, China).
# The inhibitory activities of the compounds against AChE were evaluated according to Ellman’s coupled enzyme assay[47] with the following modifications. 90 μL potassium phosphate buffer (PBS, 0.1 M, pH 7.4), 10 μL the solution of 2 units/mL AChE in 0.1 M PBS (pH 7.4) and 10 μL the solution of 200 μM test compounds in the mixed solution of methanol-PBS (pH 7.4) (1:9, V/V) were added to each well of a 96-well plate. The methanol-PBS solution was used as a blank control. After incubation at room temperature for 10 min, 60 μL the solution of 10 mM DTNB in PBS was added into each the well. The plate was placed on crushed ices and cooled for 20 min. To each the well was added 30 μL the solution of 7.5 mM ATCh in PBS (pH 7.4). […] Each test was performed in triplicate. Inhibition rates of the enzyme were calculated relative to a control sample. The inhibitory activities against BuChE were measured as described above for AChE, using 0.7 unit/mL BuChE and 4 mM BuTCh instead of AChE and ATCh as the enzyme and substrate, respectively.
# The probit value of the average inhibition rate for each test concentration and the corresponding lg[concentration] were used to establish enzyme inhibition regression equation by the linear least-square fitting method. IC50 values were calculated from the equations.
# [3] = biological target: T2, AChE (Musca domestica, UniProt Q7YWJ9); assay: biochemical; assay type: biochemical, fly
# [4] = tested on: primary cultured porcine fetal kidney cells; assay: In vitro cytotoxicity, MTT assay; details: read-out: Cytotoxicity IC50, primary cultured porcine fetal kidney cells; 48 h
# Procedure: (§1) In vitro cytotoxicity assay
# (§2) Cytotoxic activity of the compounds was determined using MTT assay1. Primary cultured goat fetal fibroblasts and primary cultured porcine fetal kidney cells were cultured in the DMEM medium (high glucose) and a mixture culture medium consisting of 50% DMEM (high glucose) and 50% DMEM/F12, respectively, supplemented with 10% fetal bovine serum, penicillin (100 U/mL) and streptomycin (100 μg/mL) at 37 ℃ in 5% CO2. The cells at […]
# (§3) After removal of the medium, the cells in each well were treated with 200 μL solution containing different concentrations of the tested compounds and vehicle controls which only received an equivalent amount of DMSO in quintuplicate for 48 h at 37 ℃. Thirty microliter of MTT solution (5 mg/mL in PBS) was added to each well with […] for an additional 4 h. After removing the supernatant, 150 μL of DMSO was added to completely dissolve the formazan crystals that had formed in viable cells in the wells. Finally, the plates were […]
# (§4) containing the same media as other test wells but no cells were used as blank controls. All the doses were tested in quintuplicate and the experiments were repeated at least three times. The inhibition rates (IRs) were calculated.
# (§5) (GraphPad Software Inc., San Diego, CA, USA).
# [5] = biological target: T2, AChE; assay: Kinetic analysis of AChE inhibition (substrate ATCh); assay type: biochemical, fly; details: for Ki: substrate ATCh, read-out: inhibition constant Ki for AChE; for mechanism of AChE inhibition: with respect to substrate ATCh
# Source text: (A and B) The reciprocals of the initial reaction rates and substrate concentrations are plotted. (C and D) The slope values of the lines from graph A or C are plotted versus the inhibitor concentration, affording an equation of linear regression.
# [6] = In vitro cytotoxicity, MTT assay; details: mouse, mouse neuroblastoma N2a cells
# [7] = In vitro cytotoxicity, MTT assay; details: pig, primary cultured porcine fetal kidney cells
# Procedure: as §1, §2, §3, §4, §5
# [8] = test concentration of the compound 10 μM
# T1 sequence (P81908 whole entry): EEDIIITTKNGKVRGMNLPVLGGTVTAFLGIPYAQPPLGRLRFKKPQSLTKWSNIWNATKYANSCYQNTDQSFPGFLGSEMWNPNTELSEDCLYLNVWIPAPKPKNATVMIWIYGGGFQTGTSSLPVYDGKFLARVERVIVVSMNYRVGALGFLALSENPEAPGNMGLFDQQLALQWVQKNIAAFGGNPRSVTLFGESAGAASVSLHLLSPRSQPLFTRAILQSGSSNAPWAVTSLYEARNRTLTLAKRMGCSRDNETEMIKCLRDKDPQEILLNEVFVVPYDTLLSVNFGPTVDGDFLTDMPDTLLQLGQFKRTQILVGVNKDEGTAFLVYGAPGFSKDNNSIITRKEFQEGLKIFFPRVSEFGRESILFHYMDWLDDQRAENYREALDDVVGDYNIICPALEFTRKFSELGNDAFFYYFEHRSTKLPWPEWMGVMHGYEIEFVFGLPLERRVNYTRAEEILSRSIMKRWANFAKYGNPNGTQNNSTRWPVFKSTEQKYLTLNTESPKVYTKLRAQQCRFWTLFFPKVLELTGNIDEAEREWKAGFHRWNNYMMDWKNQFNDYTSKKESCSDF
# T2 sequence (Q7YWJ9 81-659): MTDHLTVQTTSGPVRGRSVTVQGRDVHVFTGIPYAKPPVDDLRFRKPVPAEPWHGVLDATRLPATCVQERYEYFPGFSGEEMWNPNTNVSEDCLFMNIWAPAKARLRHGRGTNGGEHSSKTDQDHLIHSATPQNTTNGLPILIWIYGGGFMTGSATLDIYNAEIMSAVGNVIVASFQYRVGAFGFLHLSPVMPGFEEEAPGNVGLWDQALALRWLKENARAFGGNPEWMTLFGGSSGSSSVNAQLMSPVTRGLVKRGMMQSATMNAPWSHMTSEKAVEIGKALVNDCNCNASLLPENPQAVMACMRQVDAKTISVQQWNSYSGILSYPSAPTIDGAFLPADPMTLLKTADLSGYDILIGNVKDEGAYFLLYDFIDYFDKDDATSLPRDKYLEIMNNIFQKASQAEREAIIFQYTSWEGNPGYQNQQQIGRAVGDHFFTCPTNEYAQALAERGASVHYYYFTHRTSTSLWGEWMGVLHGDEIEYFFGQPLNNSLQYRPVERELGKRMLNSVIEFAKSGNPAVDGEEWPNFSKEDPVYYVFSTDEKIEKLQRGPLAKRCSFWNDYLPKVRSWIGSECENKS
SMILES,IC50 [1],IC50 [2],"SI: selectivity index, ratio IC50 (BuChE)/IC50 (AChE) [3]","Inhibition rate (%) [3, 8]",IC50 [4],binding capacity with AChE relative to substrate ATCh ([5]; Km of ATCh versus Ki),binding capacity with AChE relative to A22 ([5]; ratio of Ki values),Ki [5],mechanism of AChE inhibition [5],IC50 at 48 h [6],IC50 ([3]; read-out: IC50 ± S.D AChE),"inhibition at 10 µM ([3]; test concentration of the compound 10 μM, read-out: Inhibition rate (%))",IC50 at 48 h [7]
"Cn1c2ccccc2c2cc[n+](-c3ccc(Br)cc3Br)cc21.[Br-] [Compound B33, 9-Methyl-2-(2,4-dibromophenyl)-β-carboline bromide]",10.6 µM,30.6 ± 2.31 µM,278.2,96.7 ± 0.05 a %,> 20 µM,,,,,,,,
"Cc1ccc(-[n+]2ccc3c4ccccc4n(C)c3c2)cc1.[Br-] [Compound B22, 9-Methyl-2-(4-methylphenyl)-β-carboline bromide]",19.2 µM,32.2 ± 1.65 µM,111.6,95.2 ± 0.5 abc %,18.1 µM,~3835 fold,approximately 11 fold,0.0425 µM,competitive,,,,
Cc1ccc([N+]2=Cc3c(c4ccccc4n3C)CC2)cc1 [Compound A22],,80.1 ± 5.27 µM,55.2,,,,,0.483 µM,competitive,2.13 µM,1.45 ± 0.21 µM,77.6 ± 1.5%,5.18 µM

# From article PMC5784158, “New 2-Aryl-9-methyl-β-carbolinium salts as Potential Acetylcholinesterase Inhibitor agents: Synthesis, Bioactivity and Structure–Activity Relationship” (Scientific Reports, 2018)
